Assay results from PMC8797470, “Disruption of the pentraxin 3/CD44 interaction as an efficient therapy for triple‐negative breast cancers” (Clinical and Translational Medicine, 2022).
Ends that are not written are not given here.

Key:
MDA-MB-231 cells = assay: Sphere formation assay; format: cell-based, human; settings: MDA-MB-231 cells, with PTX3 treatment
Method: Note that 5 × 10^3 MDA‐MB‐231 cells were seeded in ultralow attachment plates (Corning) per well. Then, cultured in conditional medium containing the treatment of TGF‐β1, PTX3, PTX3NA, RI37, GI40, IgG1κ, PTX3 Ab‐10 or PTX3 Ab‐49 and the DMEM/F12 (Gibco) added with B27 (Invitrogen), 10 ng/ml bFGF (Peprotech) and 20 ng/ml EGF (Abcam). Number of spheres was calculated by microscope after 2 weeks.

PTX3/CD44 interaction = target: T1, PTX3/CD44 interaction (Homo sapiens, UniProt P16070); assay: Competitive binding ELISA of HRP-conjugated PTX3 to immobilised CD44; settings: biotinylated peptide 2 h, then 5 μg/ml HRP-conjugated PTX3 1 h at RT
T1 construct: purchased Sino Biological Inc. (CD44) 12211-H08H
Method: Plate wells (9018; Corning Costar) were coated with 10 μg/ml of CD44 (12211‐H08H; Sino Biological Inc.) in PBS (pH 7.2) and then blocking for 1 h with the blocking buffer including 3% milk in PBS. For the stability binding experiments, the PTX3‐devired biotinylated peptides were pre‐incubated in serum for 1, 2, 4 or 6 h. For the binding experiments, the horseradish peroxidase (HRP)‐conjugated recombinant PTX3, PTX3/N, PTX3/C and PTX3NA or PTX3‐devired biotinylated peptides AD9, GR9, P2rdAD9 and P12rdGR9 (32310; LEADGENE) was responded in the well for 2 h. For the peptide of competition experiments, the PTX3‐devired biotinylated peptides RI37 and GI40 were diluted at the indicated concentration in PBS. After 2 h, PBS washed three times and then incubated with 5 μg/ml HRP‐conjugated PTX3 in PBS for 1 h at room temperature (RT). For the antibody competition experiments, Ab‐10 and Ab‐49 were incubated with 5 μg/ml HRP‐conjugated PTX3 in PBS for 2 h at RT. After incubation, the mixtures was responded in the well for 1 h at RT and then PBS washed three times, tetramethyl benzidine (TMB) was used to detect the bound HRP conjugate. After 15 min, the peroxidase reaction was stopped by adding 0.1 M H2SO4. Next, ELISA plate reader was used to detect the optical densities at 450 nm.

[1] = test system: mCherry fluorescent-expressing 4T1 cells; assay: Orthotopic allograft of mCherry 4T1 cells in BALB/c mice; format: in vivo, mouse; settings: 40 mg/kg peptide every day, intraperitoneal
Text: (§1) For the animal model, MB‐Luc2 cells were mixed with human BCAFs xenografts: 1 × 10^5 MB‐Luc2 were mixed with either 1 × 10^5 BCAFs carrying a control knockdown vector (shCtl‐BCAFs), or 1 × 10^5 BCAFs carrying a CEBPD knockdown vector (shCD‐BCAFs), or 1 × 10^5 BCAFs carrying a PTX3 knockdown vector (shP‐BCAFs). The cell mixtures were inoculated into the mammary fat pads of NOD‐SCID mice. In peptide treatment experiments, NOD‐SCID mice were orthotopically inoculated with 1 × 10^6 mCherry fluorescent‐expressing MDA‐MB‐231 cells into the mammary fat pad. Similarly, 5 × 10^5 mCherry fluorescent‐expressing 4T1 cells were orthotopically inoculated into BALB/c mice in the mammary fat pad. Once tumours reached to the mean of 50 mm^3, the mice were administered 40 mg/kg of peptides RI37, GI40, P2rdAD9 or P12rdGR9 every day by intraperitoneal injection. For paclitaxel treatment, 30 mg/kg of paclitaxel was administered to the experimental mice once a week. […] The images of in vivo bioluminescence and metastasis quantification of the lung and brain were analysed by a Xenogen IVISR Spectrum Noninvasive Quantitative Molecular Imaging System. […] After that, tumour volume was mathematically determined by using the standard formula: […], where l represents the length and w represents the width of the tumour. […] After, the number of nodules on the lung surface was measured. […]

[2] = test system: RANKL, MMP2, NANOG and TWIST2 transcription in MDA-MB-231 cells; assay: Real-time quantitative PCR of PTX3-induced genes; format: cell-based, human; settings: MDA-MB-231 cells, with PTX3 treatment
Text: TRIsure RNA extraction reagent (Invitrogen) extracted total RNA. SuperScript™ III Reverse Transcriptase (Invitrogen) was used to synthesis cDNA. Next, SensiFAST™ SYBR (BIOLINE) was applied to perform real‐time quantitative PCR (Q‐PCR) assay. CFX connect Real‐Time PCR System (BIO‐RAD) executed real‐time fluorescence monitoring and the melting curve analysis according to the manufacturer's recommendations. The following pairs of specific primers—human CEBPD (F): 5′‐[…]‐3′ and CEBPD (R): 5′‐[…]‐3′, human PTX3 (F): 5′‐ […]‐3′ and PTX3 (R): 5′‐ […]‐3′, human MMP2 (F): 5′‐ […]‐3′ and MMP2 (R): 5′‐ […]‐3′, human RANKL (F): 5′‐ AGAGC GCAGATGGATCCTAA‐3′ and RANKL (R): 5′‐ TTCCTTTTGCACAGC TCCTT‐3′, human TWIST2 (F): 5′‐[…]‐3′ and TWIST2 (R): 5′‐[…]‐3′, human NANOG (F): 5′‐[…]‐3′ and NANOG (R): 5′‐ […]‐3′, human GAPDH (F): 5′‐ […]‐3′ and GAPDH (R): 5′‐ […]‐3′.

[3] = test system: mCherry fluorescent-expressing MDA-MB-231 cells; assay: Orthotopic xenograft of mCherry MDA-MB-231 cells in NOD-SCID mice; format: in vivo, mouse; settings: 40 mg/kg peptide every day, intraperitoneal
Text: as §1

T1 sequence (P16070 21-220 limits assumed): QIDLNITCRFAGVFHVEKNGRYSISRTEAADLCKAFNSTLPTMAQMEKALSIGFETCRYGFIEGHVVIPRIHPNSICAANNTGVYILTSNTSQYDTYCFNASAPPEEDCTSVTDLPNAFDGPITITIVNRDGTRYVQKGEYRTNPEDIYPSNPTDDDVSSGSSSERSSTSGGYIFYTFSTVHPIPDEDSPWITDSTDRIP

binding of PTX3 and CD44 in competition with peptide (PTX3/CD44 interaction)	Substance	PTX3-induced sphere-forming ability (stemness) (MDA-MB-231 cells)	tumour growth and metastasis [1]	PTX3-induced transcription of RANKL, MMP2, NANOG and TWIST2 [2]	tumour growth and metastasis [3]
attenuated	GI40: peptide, PTX3 amino acids 320–359 (GGGFDETLAFSGRLTGFNIWDSVLSNEEIRETGGAESCHI; also: biotin, position not given here)	suppressed	suppressed	suppressed	suppressed
attenuated	RI37: peptide, PTX3 amino acids 200–236 (RPMRLESFSACIWVKATDVLNKTILFSYGTKRNPYEI; also: biotin, position not given here)	suppressed	suppressed	suppressed	suppressed
